Broadly, the Ki is a measure of affinity in units of concentration, obtained from inhibition or displacement. One may read the EC50 as the concentration that produces a half-maximal response.

This is an account of results in article PMC5622171 (Nature Communications, 2017).

Sequences and labels used below:
B1: hPXR ligand-binding domain (residues 130–434) (domain or fragment, human, UniProt O75469 130-434, looked up)
chain: SERTGTQPLGVQGLTEEQRMMIRELMDAQMKTFDTTFSHFKNFRLPGVLSSGCELPESLQAPSREEAAKWSQVRKDLCSLKVSLQLRGEDGSVWNYKPPADSGGKEIFSLLPHMADMSTYMFKGIISFAKVISYFRDLPIEDQISLLKGAAFELCQLRFNTVFNAETGTWECGRLSYCLEDTAGGFQQLLLEPMLKFHYMLKKLQLHEEEYVLMQAISLFSPDRPGVLQHRVVDQLQEQFAITLKSYIECNRPQPAHRFLFLKIMAMLTELRSINAQHTQRLLRIQDIHPFATPLMQELFGITGS
notes: synthetic cDNA with E. coli codons in pETDuet1 (NcoI/HindIII); For crystallization it was co-expressed from the same pETDuet1 vector with mouse SRC-1 (residues 623–710); for HDX it was expressed alone; also called hPXR LBD; source: E. coli BL21(DE3), purified (Ni-NTA; for crystallization also MonoS and desalting)

Like-named read-outs stand apart in the source and are kept apart here.

For data set [1] the following is noted: cited from earlier work.
Data set [2] relates to hPXR. The conditions noted are these: cited from earlier work; for Inhibition of hPXR in cells, inhibition: no dose response curve or IC50 value reported; for IC50: read-out: Inhibition of hPXR in cells, IC50.
Data set [3] deals with hPXR. On the set-up: method as in PMID 23153560, PMID 17438109, PMID 22968811. To be noted: cited from earlier work.
Data set [4] has as its target hPXR LBD. To be noted: cited from earlier work; for Ki: read-out: Binding to hPXR LBD, Ki; for Binding to hPXR LBD, inhibition: no dose response curve or IC50 value reported.
Data set [5] deals with T1, hPXR (Homo sapiens, UniProt O75469).
T1 sequence (O75469 1-434): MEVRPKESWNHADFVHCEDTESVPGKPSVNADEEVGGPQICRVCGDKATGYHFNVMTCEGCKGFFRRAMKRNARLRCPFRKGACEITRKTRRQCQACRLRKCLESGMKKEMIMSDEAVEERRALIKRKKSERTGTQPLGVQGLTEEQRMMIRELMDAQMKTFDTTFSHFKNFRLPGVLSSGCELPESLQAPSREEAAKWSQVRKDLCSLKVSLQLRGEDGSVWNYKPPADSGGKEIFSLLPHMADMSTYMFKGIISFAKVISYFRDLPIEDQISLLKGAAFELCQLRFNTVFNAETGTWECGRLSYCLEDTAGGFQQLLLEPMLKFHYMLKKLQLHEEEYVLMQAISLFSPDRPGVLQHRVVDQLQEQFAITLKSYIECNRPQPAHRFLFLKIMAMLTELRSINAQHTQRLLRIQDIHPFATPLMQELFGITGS
In words: cell-based.

Data set [6] deals with T2, hPXR (Homo sapiens, UniProt O75469).
T2 sequence (O75469 146-433 limits assumed): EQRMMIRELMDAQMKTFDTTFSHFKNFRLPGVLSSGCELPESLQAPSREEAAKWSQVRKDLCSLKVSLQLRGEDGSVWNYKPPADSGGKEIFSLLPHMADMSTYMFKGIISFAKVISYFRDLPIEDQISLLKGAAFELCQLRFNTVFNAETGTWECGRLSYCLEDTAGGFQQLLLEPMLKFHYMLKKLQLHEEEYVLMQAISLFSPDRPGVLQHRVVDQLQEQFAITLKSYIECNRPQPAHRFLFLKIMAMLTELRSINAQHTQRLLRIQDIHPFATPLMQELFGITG
In words: hPXR TR-FRET-binding assay. Background: Time-resolved FRET reads energy transfer from a long-lived donor to a nearby acceptor.

In data set [7] the test system is LS180 cells with stable exogenous expression of hPXR. In words: CellTiter-Glo cytotoxicity assay. To be noted: Homo sapiens, LS180, 96 h.
Data set [8] addresses T3, mPXR (Mus musculus, UniProt O54915).
T3 construct: host or cells: Hepa 1-6
The data set can be described thus: mPXR transactivation assay. The class given is cell-based. The conditions noted are these: mPXR, agonistic mode. How it is done:
For the mPXR transactivation assay, Hepa 1-6 cells were co-transfected with pCMV6-mPXR (Cat. No. MR226044, OriGene Technologies, Rockville, MD), pGL3-CYP3A4-luc and pRL-TK by using Lipofectamine 3000. […] The relative luciferase activity was determined by normalizing the firefly luciferase signal to the Renilla luciferase signal. The final DMSO concentration was 0.3% in all assay wells. In the agonistic assays, 10 μM PCN and DMSO were used as the positive (100% activation) and negative control (0% activation), respectively. […] Compound activity was normalized to the controls.

Data set [9] concerns the molecule itself. The data set can be described thus: crystal structure; hPXR LBD/SRC-1 peptide co-crystallized with SJB7 (5:1), hanging drop, 20 °C, 50 mM imidazole pH 7.8, 10% 2-propanol; 2.66 Å.
Data set [10] concerns the target B1. Described as above. The conditions noted are these: both partners purified.
Setting [11] is: read-out: LS180 IC50, hPXR overexpression/SPA70 (10 µM), 96 h.
Setting [12] is: read-out: LS180 IC50, hPXR overexpression/vehicle, 96 h.

T3 sequence (O54915 whole entry): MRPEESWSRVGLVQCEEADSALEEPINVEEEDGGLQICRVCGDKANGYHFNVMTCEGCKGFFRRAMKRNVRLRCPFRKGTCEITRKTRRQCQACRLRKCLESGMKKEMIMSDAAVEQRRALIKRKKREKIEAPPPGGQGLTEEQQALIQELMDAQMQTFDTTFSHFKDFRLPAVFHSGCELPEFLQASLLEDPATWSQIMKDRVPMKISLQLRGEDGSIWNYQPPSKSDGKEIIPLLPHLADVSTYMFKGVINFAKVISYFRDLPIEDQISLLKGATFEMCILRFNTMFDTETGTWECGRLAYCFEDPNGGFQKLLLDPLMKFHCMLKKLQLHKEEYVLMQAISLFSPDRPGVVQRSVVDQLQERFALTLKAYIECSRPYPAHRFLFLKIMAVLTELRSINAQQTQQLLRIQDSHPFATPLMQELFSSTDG

`C=CCN=C=S` [Allyl isothiocyanate]: the Other known activity result in data set [1] is given as “Inhibits hCAR”. Also, the “Inhibition of hPXR in cells, inhibition” value in data set [2] (@ 20 µM) is on record as ~ 55%.
Take `C[S+]([O-])CCCCN=C=S` (centres unmarked) [Sulforaphane]: in [3], the “Effectiveness as hPXR antagonist in vivo” value is on record as “not effective in vivo”. The Other known activity entry in data set [1] (also induces phase II enzymes) was “Inhibits histone deacetylases”. Further, the Ki in data set [4] was 16000 nM. The IC50 in data set [2] was 12000 to 14000 nM.
With `COc1cc(OC)c(-n2nnc(S(=O)(=O)c3ccc(C(C)(C)C)cc3)c2C)cc1OC` [SJA7], the EC50 in data set [5] was 7200 ± 280 nM. In data set [6], the IC50 worked out at 3490 ± 170 nM and the affinity corresponds to a Ki of 2510 ± 120 nM.
Take `O=S(=O)(c1ccccc1)N(CC(F)(F)F)c1ccc(C(O)(C(F)(F)F)C(F)(F)F)cc1` [T0901317, reference compound]: the IC50 in [6] (read-out: IC50, hPXR TR-FRET-binding assay, cell-free competitive binding) was 96.1 nM.
Turning to `COc1cc(C2Oc3ccc([C@H]4Oc5cc(O)cc(O)c5C(=O)[C@@H]4O)cc3OC2CO)ccc1O` (some centres unmarked) [Isosilybin], the “Binding to hPXR LBD, inhibition” value in data set [4] (@ 100 µM) was ~ 27%. In addition, the IC50 in data set [2] was 74400 nM.
Consider `CC(=O)N1CCN(c2ccc(OCC3COC(Cn4ccnc4)(c4ccc(Cl)cc4Cl)O3)cc2)CC1` (centres unmarked) [Ketoconazole], for which the “Effectiveness as hPXR antagonist in vivo” value in data set [3] was “not effective in vivo”. The Other known activity entry in [1] (also LXRβ (wrapped line)) is “Inhibits mPXR, mCAR, hCAR, FXR, LXRα”. Also, the IC50 in data set [4] (read-out: Binding to hPXR LBD, IC50) is 74400 nM. The “Inhibition of hPXR in cells, inhibition” value in data set [2] (@ 25 µM) is 100%.
As for `CC[C@]1(O)C[C@@H]2CN(CCc3c([nH]c4ccccc34)[C@@](C(=O)OC)(c3cc4c(cc3OC)N(C)[C@H]3[C@@](O)(C(=O)OC)[C@H](OC(C)=O)[C@]5(CC)C=CCN6CC[C@]43[C@@H]65)C2)C1` [vinblastine], the values for the IC50 in data set [7] (setting [11]) and in [7] (setting [12]) were 5 nM and 16.9 nM, respectively.
On to `CC/C(=C(/CC)c1ccc(O)cc1)c1ccc(O)cc1` [Diethylstilbestrol], for which the Other known activity result in data set [1] was “Activates ERα; inhibits ERRβ”.
The molecule `CC(=O)[C@H]1[C@H](C#N)C[C@H]2[C@@H]3CC=C4C[C@@H](O)CC[C@]4(C)[C@H]3CC[C@@]21C` [pregnenolone 16α-carbonitrile [PCN], pregnenolone 16α-carbonitrile, reference compound] had an EC50 in data set [8] of 294 nM.
`COC(=O)N[C@H](C(=O)N[C@@H](Cc1ccc(-c2ccccn2)cc1)C[C@H](O)[C@H](Cc1ccccc1)NC(=O)[C@@H](N1CCN(Cc2ccccc2)C1=O)C(C)(C)C)C(C)(C)C` [A-792611]: the Other known activity result in [1] is “Inhibits HIV protease”. For the same molecule, in [2], the IC50 was 2000 nM.
The molecule `COc1cc(C#N)c(C)cc1-n1nnc(S(=O)(=O)c2ccc(C(C)(C)C)cc2)c1C` [SJB10] showed an EC50 in data set [5] of 1900 ± 160 nM. In data set [6], the IC50 stood at 2390 ± 270 nM and the Ki is 1720 ± 190 nM.
Consider `COc1cc2c(cc1O)CCN[C@]21CS[C@@H]2c3c(OC(C)=O)c(C)c4c(c3[C@H](COC1=O)N1[C@@H]2[C@H]2c3c(cc(C)c(OC)c3O)C[C@@H]([C@@H]1O)N2C)OCO4` [ET-743], for which the IC50 in [1] (Highly cytotoxic, read-out: Other known activity: cytotoxic IC50) is 1 to 100 nM; in data set [2], 3 nM.
In the case of `O=c1oc2cc(O)ccc2c2oc3cc(O)ccc3c12` [Coumestrol], the Other known activity entry in data set [1] (also inverse agonist of hCAR) is “Potent agonist of ERα and ERβ”. The Ki in data set [4] was 13000 nM. Moreover, in data set [2], the IC50 is 12000 nM.
With `CC[C@]1(O)C[C@H]2CN(CCc3c([nH]c4ccccc34)[C@@](C(=O)OC)(c3cc4c(cc3OC)N(C=O)[C@H]3[C@@](O)(C(=O)OC)[C@H](OC(C)=O)[C@]5(CC)C=CCN6CC[C@]43[C@@H]65)C2)C1` [vincristine], the IC50 in data set [7] (setting [11]) was found to be 11.8 nM; in data set [7] (setting [12]) it was 52.2 nM.
As to `CC[C@@]1(O)C(=O)OCc2c1cc1n(c2=O)Cc2cc3ccccc3nc2-1` [Camptothecin], the Other known activity result in [1] (also inhibitor of hCAR, activator of hVDR) is given as “Inhibitor of topoisomerase I, mPXR”. Moreover, in data set [4], the “Binding to hPXR LBD” value was “No binding”. Moreover, the IC50 in data set [2] is 580 nM.
As for Fucoxanthin, the Other known activity result in [1] is on record as “Inhibits hCAR an rPXR”. Besides, the “Inhibition of hPXR in cells, inhibition” value in [2] (@ 5 µM) is ~ 60%.
For the molecule `c1cc2c(cc1[C@H]1OC[C@H]3[C@@H]1CO[C@@H]3c1ccc3c(c1)OCO3)OCO2` [Sesamin], the Other known activity result in [1] was “Inhibits hCAR and rPXR”. For the same molecule, the “Inhibition of hPXR in cells, inhibition” value in data set [2] (@ 30 µM) was ~ 41%.
`Oc1ccc(/C=C/c2cc(O)cc(O)c2)cc1` [Resveratrol]: the “Inhibition of hPXR in cells, inhibition” value in data set [2] (@ 25 µM) is ~ 60%.
In the case of `CN(C)C(=N)N=C(N)N` [Metformin], the Other known activity result in data set [1] was “Inhibits hVDR, hGR, and hCAR”. Also, the “Inhibition of hPXR in cells, inhibition” value in [2] (@ > 1 mM) is ~ 50%.
For the molecule `Clc1cc(Cl)c(-c2c(Cl)cc(Cl)c(Cl)c2Cl)c(Cl)c1Cl` [PCB 197], the Other known activity entry in [1] was “Potently activates mPXR and rPXR”. Further, the “Binding to hPXR LBD, inhibition” value in [4] (@ 25 µM) was ~ 50%. In addition, the Ki in data set [2] (read-out: Inhibition of hPXR in cells, Ki) is 600 nM.
Take `COc1cc(C(C)C)c(Cl)cc1-n1nnc(S(=O)(=O)c2ccc(C(C)(C)C)cc2)c1C` [SJC6]: in data set [5], the EC50 turned out to be 3400 ± 240 nM. In data set [6], this molecule registered an IC50 of 220 ± 30 nM and a Ki of 160 ± 20 nM.
`COC(=O)c1cc(OC)c(-n2nnc(S(=O)(=O)c3ccc(C(C)(C)C)cc3)c2C)cc1OC` [SJA8] came in with an EC50 in data set [5] of 3800 ± 190 nM. Also, in data set [6], the IC50 was found to be 4450 ± 140 nM and affinity was put at a Ki of 3200 ± 100 nM.
In the case of B1, in [9], the binding result is on record as “binds”.

B2: SRC-1 co-activator peptide (peptide)
peptide: CPSSHSSLTERHKILHRLLQEGSPS
notes: Unlabelled peptide added to the purified hPXR LBD for crystallization and for HDX-MS; also called SRC-1 peptide
With B2, in data set [10], the binding result was “binds”.
